Assay results reported in paper PMC12670164, “In vitro and clinical data demonstrate negligible risk of drug–drug interactions with opelconazole, a novel inhaled antifungal agent” (Journal of Antimicrobial Chemotherapy, 2025).

Legend:
Assay in all cases: Transporter inhibition
Type in all cases: in vitro ADME
P-gp = target: T1, P-gp (Homo sapiens, UniProt P08183)
T1 construct: expressed in transfected cells
Protocol: (§1) Human transporter protein interactions with opelconazole as a potential substrate and/or inhibitor were assessed for the following key carrier transporters: organic anion transporters, OAT1 and OAT3; organic cation transporters, OCT1 and OCT2; OATP1B1 and OATP1B3; multidrug and toxin extrusion, MATE-1 and MATE2-K; key ATP-binding cassette (ABC) transporters including P-gp, breast cancer resistance protein (BCRP) and bile salt export pump (BSEP). Two concentrations of opelconazole, 0.5 and 5 μM, were tested using MDCKII cells, human embryonic kidney 293 cells and BSEP-transfected sf9 membrane vesicles and then analysed by LC-tandem MS to determine transporter inhibition and whether opelconazole was a transporter substrate. The viability of experimental test systems was confirmed with controls and known probe substrates and probe inhibitors.

OCT2 = target: T2, OCT2 (Homo sapiens, UniProt O15244)
T2 construct: expressed in transfected cells
T2 sequence (O15244 1-555): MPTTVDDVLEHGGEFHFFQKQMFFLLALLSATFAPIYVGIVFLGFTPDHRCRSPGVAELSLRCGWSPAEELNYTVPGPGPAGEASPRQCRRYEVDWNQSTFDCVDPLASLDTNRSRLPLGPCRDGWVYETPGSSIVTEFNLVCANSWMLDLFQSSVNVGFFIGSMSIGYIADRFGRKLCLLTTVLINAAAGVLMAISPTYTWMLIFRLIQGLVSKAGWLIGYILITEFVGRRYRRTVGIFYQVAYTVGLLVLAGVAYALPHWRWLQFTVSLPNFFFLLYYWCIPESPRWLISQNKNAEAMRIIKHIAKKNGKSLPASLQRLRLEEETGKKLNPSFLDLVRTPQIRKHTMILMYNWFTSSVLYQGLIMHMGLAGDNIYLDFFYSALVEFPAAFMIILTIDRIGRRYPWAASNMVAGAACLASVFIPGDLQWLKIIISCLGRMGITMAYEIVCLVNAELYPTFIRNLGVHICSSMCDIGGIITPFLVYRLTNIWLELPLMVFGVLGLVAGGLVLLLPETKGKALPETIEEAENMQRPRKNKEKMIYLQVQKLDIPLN
Protocol: as §1

OCT1 = target: T3, OCT1 (Homo sapiens, UniProt O15245); conditions: 0.5 and 5 μM tested
T3 construct: expressed in transfected cells
T3 sequence (O15245 1-554): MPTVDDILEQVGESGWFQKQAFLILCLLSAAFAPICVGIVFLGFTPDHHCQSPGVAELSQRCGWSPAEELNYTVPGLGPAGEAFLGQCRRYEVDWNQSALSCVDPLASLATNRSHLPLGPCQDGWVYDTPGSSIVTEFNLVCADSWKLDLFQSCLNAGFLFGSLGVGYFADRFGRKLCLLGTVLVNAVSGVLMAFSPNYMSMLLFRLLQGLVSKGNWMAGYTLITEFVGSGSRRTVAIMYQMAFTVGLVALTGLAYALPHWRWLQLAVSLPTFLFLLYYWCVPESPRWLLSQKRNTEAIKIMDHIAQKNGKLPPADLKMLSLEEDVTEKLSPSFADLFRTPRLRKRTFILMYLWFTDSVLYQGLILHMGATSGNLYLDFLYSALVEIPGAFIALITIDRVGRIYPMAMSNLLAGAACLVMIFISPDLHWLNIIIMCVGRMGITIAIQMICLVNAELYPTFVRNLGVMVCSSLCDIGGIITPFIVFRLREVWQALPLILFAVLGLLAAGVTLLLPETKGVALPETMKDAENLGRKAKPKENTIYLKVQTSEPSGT
Protocol: as §1

OATP1B1 = target: T4, OATP1B1 (Homo sapiens, UniProt Q9Y6L6); conditions: 0.5 and 5 μM tested
T4 construct: expressed in transfected cells
T4 sequence (Q9Y6L6 1-691): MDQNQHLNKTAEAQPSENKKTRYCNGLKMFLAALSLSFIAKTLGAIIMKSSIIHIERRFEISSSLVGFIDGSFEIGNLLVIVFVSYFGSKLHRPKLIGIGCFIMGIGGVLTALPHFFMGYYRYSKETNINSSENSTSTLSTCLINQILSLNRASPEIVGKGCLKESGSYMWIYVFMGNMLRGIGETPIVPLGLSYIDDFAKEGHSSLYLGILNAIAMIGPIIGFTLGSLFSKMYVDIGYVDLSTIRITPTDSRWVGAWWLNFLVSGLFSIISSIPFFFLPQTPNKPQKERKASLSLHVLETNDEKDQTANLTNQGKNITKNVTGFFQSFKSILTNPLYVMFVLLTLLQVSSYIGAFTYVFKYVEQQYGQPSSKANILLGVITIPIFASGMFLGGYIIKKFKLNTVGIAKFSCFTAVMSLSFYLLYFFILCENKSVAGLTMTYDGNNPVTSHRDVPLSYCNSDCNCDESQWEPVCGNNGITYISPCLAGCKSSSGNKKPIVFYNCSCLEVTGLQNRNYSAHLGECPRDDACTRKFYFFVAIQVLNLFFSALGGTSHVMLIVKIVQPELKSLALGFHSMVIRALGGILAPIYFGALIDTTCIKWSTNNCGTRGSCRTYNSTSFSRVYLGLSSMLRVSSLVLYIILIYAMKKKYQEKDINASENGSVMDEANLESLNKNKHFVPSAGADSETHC
Protocol: as §1

OATP1B3 = target: T5, OATP1B3 (Homo sapiens, UniProt Q9NPD5); conditions: 0.5 and 5 μM tested
T5 construct: expressed in transfected cells
T5 sequence (Q9NPD5 1-702): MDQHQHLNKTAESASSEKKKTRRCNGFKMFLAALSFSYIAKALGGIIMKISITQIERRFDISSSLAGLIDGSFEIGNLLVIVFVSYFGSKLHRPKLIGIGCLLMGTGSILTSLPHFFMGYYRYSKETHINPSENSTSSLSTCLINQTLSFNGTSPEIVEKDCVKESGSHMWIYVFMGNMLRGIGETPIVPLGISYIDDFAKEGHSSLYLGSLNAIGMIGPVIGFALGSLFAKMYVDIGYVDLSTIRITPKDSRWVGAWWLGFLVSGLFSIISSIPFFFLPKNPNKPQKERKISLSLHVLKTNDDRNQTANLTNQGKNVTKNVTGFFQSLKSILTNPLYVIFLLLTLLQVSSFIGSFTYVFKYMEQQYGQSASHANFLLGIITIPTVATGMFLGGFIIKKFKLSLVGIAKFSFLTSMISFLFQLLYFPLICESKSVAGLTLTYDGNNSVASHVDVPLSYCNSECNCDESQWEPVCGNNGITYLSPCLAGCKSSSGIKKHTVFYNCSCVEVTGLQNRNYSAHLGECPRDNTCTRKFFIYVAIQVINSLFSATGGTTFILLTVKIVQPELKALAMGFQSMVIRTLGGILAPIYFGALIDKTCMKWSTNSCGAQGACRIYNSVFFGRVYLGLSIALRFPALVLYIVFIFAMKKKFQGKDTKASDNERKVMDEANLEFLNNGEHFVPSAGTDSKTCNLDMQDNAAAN
Protocol: as §1

T1 sequence (P08183 whole entry): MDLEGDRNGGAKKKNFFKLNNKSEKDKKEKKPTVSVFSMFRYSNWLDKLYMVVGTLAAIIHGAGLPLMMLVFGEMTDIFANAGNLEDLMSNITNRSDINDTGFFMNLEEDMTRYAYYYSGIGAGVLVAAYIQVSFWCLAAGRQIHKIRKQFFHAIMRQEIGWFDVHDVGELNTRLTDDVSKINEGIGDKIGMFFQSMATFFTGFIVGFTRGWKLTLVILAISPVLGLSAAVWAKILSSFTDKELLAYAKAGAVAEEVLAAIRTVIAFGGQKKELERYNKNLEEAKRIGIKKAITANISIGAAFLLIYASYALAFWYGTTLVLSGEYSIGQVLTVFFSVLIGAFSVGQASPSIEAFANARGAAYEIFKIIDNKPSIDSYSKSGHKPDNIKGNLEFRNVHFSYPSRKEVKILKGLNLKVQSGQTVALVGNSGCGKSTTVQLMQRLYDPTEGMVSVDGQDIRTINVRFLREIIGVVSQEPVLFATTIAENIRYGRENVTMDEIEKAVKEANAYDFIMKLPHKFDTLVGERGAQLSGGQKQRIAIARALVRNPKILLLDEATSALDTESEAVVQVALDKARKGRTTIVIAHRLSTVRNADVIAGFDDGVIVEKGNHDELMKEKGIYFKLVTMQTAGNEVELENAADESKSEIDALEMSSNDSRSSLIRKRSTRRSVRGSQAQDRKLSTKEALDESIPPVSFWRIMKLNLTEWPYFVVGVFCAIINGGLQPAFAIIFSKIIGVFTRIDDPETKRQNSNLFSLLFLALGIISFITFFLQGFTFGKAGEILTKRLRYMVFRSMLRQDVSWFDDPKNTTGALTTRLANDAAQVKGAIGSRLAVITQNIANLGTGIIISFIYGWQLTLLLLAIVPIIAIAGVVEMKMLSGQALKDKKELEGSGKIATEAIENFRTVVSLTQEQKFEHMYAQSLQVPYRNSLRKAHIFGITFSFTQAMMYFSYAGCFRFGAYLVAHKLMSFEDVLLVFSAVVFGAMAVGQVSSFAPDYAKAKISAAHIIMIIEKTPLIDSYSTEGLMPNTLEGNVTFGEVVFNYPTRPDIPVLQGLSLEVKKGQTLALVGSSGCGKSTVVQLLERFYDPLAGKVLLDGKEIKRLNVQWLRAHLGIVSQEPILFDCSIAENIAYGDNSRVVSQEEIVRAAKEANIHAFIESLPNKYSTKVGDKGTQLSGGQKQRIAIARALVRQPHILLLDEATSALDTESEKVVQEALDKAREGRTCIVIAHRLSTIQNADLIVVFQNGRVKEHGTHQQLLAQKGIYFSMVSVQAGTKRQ

How did the “inhibitory interaction with P-gp” value (P-gp; 0.5 μM opelconazole) turn out when Cc1cc(N2CCN(c3ccc(C(=O)Nc4ccc(F)cc4)cc3)CC2)ccc1OC[C@@H]1CO[C@@](Cn2cncn2)(c2ccc(F)cc2F)C1 [opelconazole] was run?
Its value is “negligible inhibitory interactions”.

What about the “inhibition of P-gp relative to solvent control” value (P-gp; 5 μM opelconazole) of the same compound?
The value was 52%.

And the “inhibitory interaction with OCT2” value (OCT2; 0.5 μM opelconazole)?
Its value is “negligible inhibitory interactions”.

And the “inhibition of OCT2 relative to solvent control” value (OCT2; 5 μM opelconazole)?
The value was 39%.

And the “inhibitory interaction with OCT1” value (OCT1)?
The value was “negligible inhibitory interactions”.

And the “inhibitory interaction with OATP1B1” value (OATP1B1)?
The value was “negligible inhibitory interactions”.

What about the “inhibitory interaction with OATP1B3” value (OATP1B3) of the same compound?
The value was “negligible inhibitory interactions”.
